Drawing on patent publication US9474790B2, “Stable, protracted GLP-1/glucagon receptor co-agonists for medical use” (Novo Nordisk A/S, priority 2013, dated 2016), this text covers EC50 for six compounds.

Molecules are shown by their SMILES. Numbered stars: 1 amine (or outer) side, 2 acyl side, 3 side chain; on linkers, the order of the positions; unused ones are H or OH. Bridge positions count the residues as written; N and C are the ends. Square brackets hold non-standard residues; d marks the D form. Side chains are listed from the residue outwards. Peptide text beside a SMILES is read from it. I, II: the chains in the order shown. * marks the point of attachment. C18 diacid = O=C(O)CCCCCCCCCCCCCCCCC(=O)*; γGlu = O=C(O)[C@H](CCC(=O)[*:2])N[*:1]; Ac4c = NC1(C(=O)O)CCC1; AEEA = NCCOCCOCC(=O)O; Aib = CC(C)(N)C(=O)O

This test deals with T1, human GLP-1 receptor (Homo sapiens, UniProt P43220).
T1 construct: expressed in transfected cells; host or cells: BHK cells (parent BHKTS13), clone FCW467-12A/KZ10-1, with CRE luciferase
T1 sequence (P43220 24-463): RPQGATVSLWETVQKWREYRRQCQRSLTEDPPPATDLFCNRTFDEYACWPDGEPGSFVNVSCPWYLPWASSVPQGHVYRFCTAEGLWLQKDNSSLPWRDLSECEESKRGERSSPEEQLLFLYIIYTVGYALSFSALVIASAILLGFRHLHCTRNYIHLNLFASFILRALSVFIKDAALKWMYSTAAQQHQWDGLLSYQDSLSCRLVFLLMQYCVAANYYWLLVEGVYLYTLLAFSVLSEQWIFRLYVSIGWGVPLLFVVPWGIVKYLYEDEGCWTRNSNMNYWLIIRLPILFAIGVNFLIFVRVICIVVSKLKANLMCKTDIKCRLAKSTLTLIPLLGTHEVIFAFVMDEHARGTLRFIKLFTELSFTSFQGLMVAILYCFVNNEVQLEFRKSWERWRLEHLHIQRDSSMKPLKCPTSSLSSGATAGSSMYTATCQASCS
Nature of the test: GLP-1 receptor potency, CRE luciferase reporter gene assay in BHK cells. The format is cell-based. The note with it: BHK cells expressing human GLP-1 receptor, read-out: EC50 GLP-1R. The essentials:
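BHK cells stably expressing human GLP-1 receptor with CRE-luciferase reporter, 5×10EE3 cells/well in phenol red-free DMEM with 10 mM Hepes, 2% ovalbumin, 0.2% Pluronic F-68. Compounds at final 1×10EE-6 to 1×10EE-13 M, 3 h at 37° C; steadylite luminescence; EC50 by four-parameter fit, in pM.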
Usually EC50 stands for the concentration needed to bring the measured effect to its halfway point. With `CC(C)C[C@H](NC(=O)[C@H](CC(C)C)NC(=O)[C@H](Cc1c[nH]c2ccccc12)NC(=O)[C@H](CCC(N)=O)NC(=O)[C@@H](NC(=O)[C@H](Cc1ccccc1)NC(=O)[C@H](CCC(=O)O)NC(=O)[C@H](CCCNC(=N)N)NC(=O)[C@H](C)NC(=O)[C@H](CCCNC(=N)N)NC(=O)[C@H](CCCNC(=N)N)NC(=O)[C@H](CO)NC(=O)[C@H](CCC(=O)O)NC(=O)[C@H](CC(C)C)NC(=O)[C@H](Cc1ccc(O)cc1)NC(=O)[C@H](CCCCN)NC(=O)[C@H](CO)NC(=O)[C@H](CC(C)C)NC(=O)[C@H](CC(=O)O)NC(=O)[C@H](CO)NC(=O)[C@@H](NC(=O)[C@H](Cc1ccccc1)NC(=O)[C@@H](NC(=O)CNC(=O)[C@H](CCC(N)=O)NC(=O)C(C)(C)NC(=O)[C@@H](N)Cc1c[nH]cn1)[C@@H](C)O)[C@@H](C)O)C(C)C)C(=O)N[C@@H](CC(N)=O)C(=O)N[C@@H](CCCCNC(=O)CC[C@H](NC(=O)COCCOCCNC(=O)COCCOCCNC(=O)CC[C@H](NC(=O)CC[C@H](NC(=O)CCCCCCCCCCCCCCCCC(=O)O)C(=O)O)C(=O)O)C(=O)O)C(N)=O` [Example 21, N^ε29-[(4S)-4-carboxy-4-[[2-[2-[2-[[2-[2-[2-[[(4S)-4-carboxy-4-[[(4S)-4-carboxy-4-(17-carboxyheptadecanoylamino)butanoyl]amino]butanoyl]amino]ethoxy]ethoxy]acetyl]amino]ethoxy]ethoxy]acetyl]amino]butanoyl]-[Aib2,Leu10,Glu15,Arg20,Glu21,Leu27,Lys29]-Glucagon amide] (H-H[Aib]QGTFTSDLSKYLESRRAREFVQWLLNK([γGlu-AEEA-AEEA-γGlu-γGlu-C18 diacid])-NH2; N-terminus assumed), the half-maximal effective concentration (EC50) came to 2.7 pM. As to `CC(C)C[C@H](NC(=O)[C@H](Cc1ccc(O)cc1)NC(=O)[C@H](CCCCN)NC(=O)[C@H](CO)NC(=O)[C@H](CC(C)C)NC(=O)[C@H](CC(=O)O)NC(=O)[C@H](CO)NC(=O)[C@@H](NC(=O)[C@H](Cc1ccccc1)NC(=O)[C@@H](NC(=O)CNC(=O)[C@H](Cc1c[nH]cn1)NC(=O)C(C)(C)NC(=O)[C@@H](N)Cc1c[nH]cn1)[C@@H](C)O)[C@@H](C)O)C(=O)N[C@@H](CCC(=O)O)C(=O)N[C@@H](CO)C(=O)N[C@@H](CCCCN)C(=O)N[C@@H](CCCNC(=N)N)C(=O)N[C@@H](C)C(=O)N[C@@H](CCCNC(=N)N)C(=O)N[C@@H](CCC(=O)O)C(=O)N[C@@H](Cc1ccccc1)C(=O)N[C@H](C(=O)N[C@@H](CCC(N)=O)C(=O)N[C@@H](Cc1c[nH]c2ccccc12)C(=O)N[C@@H](CC(C)C)C(=O)N[C@@H](CC(C)C)C(=O)N[C@@H](CCCCNC(=O)CC[C@H](NC(=O)CC[C@H](NC(=O)COCCOCCNC(=O)COCCOCCNC(=O)CC[C@H](NC(=O)CCCCCCCCCCCCCCCCC(=O)O)C(=O)O)C(=O)O)C(=O)O)C(=O)N[C@H](C(N)=O)[C@@H](C)O)C(C)C` [Example 27, N^ε28-[(4S)-4-carboxy-4-[[(4S)-4-carboxy-4-[[2-[2-[2-[[2-[2-[2-[[(4S)-4-carboxy-4-(17-carboxyheptadecanoylamino)butanoyl]amino]ethoxy]ethoxy]acetyl]amino]ethoxy]ethoxy]acetyl]amino]butanoyl]amino]butanoyl]-[Aib2,His3,Leu10,Glu15,Lys17,Arg20,Glu21,Leu27, Lys28]-Glucagon amide] (H-H[Aib]HGTFTSDLSKYLESKRAREFVQWLLK([γGlu-γGlu-AEEA-AEEA-γGlu-C18 diacid])T-NH2; N-terminus assumed), the EC50 turned out to be 4.1 pM. For `CC(C)C[C@H](NC(=O)[C@H](Cc1ccc(O)cc1)NC(=O)[C@H](CCCCN)NC(=O)[C@H](CO)NC(=O)[C@H](CC(C)C)NC(=O)[C@H](CC(=O)O)NC(=O)[C@H](CO)NC(=O)[C@@H](NC(=O)[C@H](Cc1ccccc1)NC(=O)[C@@H](NC(=O)CNC(=O)[C@H](Cc1c[nH]cn1)NC(=O)C1(NC(=O)[C@@H](N)Cc2c[nH]cn2)CCC1)[C@@H](C)O)[C@@H](C)O)C(=O)N[C@@H](CCC(=O)O)C(=O)N[C@@H](CO)C(=O)N[C@@H](CCCNC(=N)N)C(=O)N[C@@H](CCCNC(=N)N)C(=O)N[C@@H](C)C(=O)N[C@@H](CCC(N)=O)C(=O)N[C@@H](CC(=O)O)C(=O)N[C@@H](Cc1ccccc1)C(=O)N[C@H](C(=O)N[C@@H](CCC(N)=O)C(=O)N[C@@H](Cc1c[nH]c2ccccc12)C(=O)N[C@@H](CC(C)C)C(=O)N[C@@H](CC(C)C)C(=O)N[C@@H](CCCCNC(=O)CNC(=O)[C@H](CO)NC(=O)[C@H](CCC(=O)O)NC(=O)CNC(=O)[C@H](CO)NC(=O)CC[C@H](NC(=O)CC[C@H](NC(=O)CCCCCCCCCCCCCCCCC(=O)O)C(=O)O)C(=O)O)C(=O)N[C@H](C(N)=O)[C@@H](C)O)C(C)C` [Example 35, N^ε28-[2-[[(2S)-2-[[(2S)-4-carboxy-2-[[2-[[(2S)-2-[[(4S)-4-carboxy-4-[[(4S)-4-carboxy-4-(17-carboxyheptadecanoylamino)butanoyl]amino]butanoyl]amino]-3-hydroxypropanoyl]amino]acetyl]amino]butanoyl]amino]-3-hydroxypropanoyl]amino]acetyl]-[Acb2,His3,Leu10,Glu15, Leu27,Lys28]-Glucagon amide] (I: H-H[Ac4c]HGTFTSDLSKYLESRRAQDFVQWLLKT-NH2 / II: {C18 diacid-γGlu-γGlu}-SGESG; amide I:28-II:C; N-terminus assumed) the value was 3 pM; for `CC(C)C[C@H](NC(=O)[C@H](Cc1ccc(O)cc1)NC(=O)[C@H](CCCCN)NC(=O)[C@H](CO)NC(=O)[C@H](CC(C)C)NC(=O)[C@H](CC(=O)O)NC(=O)[C@H](CO)NC(=O)[C@@H](NC(=O)[C@H](Cc1ccccc1)NC(=O)[C@@H](NC(=O)CNC(=O)[C@H](CCC(N)=O)NC(=O)C(C)(C)NC(=O)[C@@H](N)Cc1c[nH]cn1)[C@@H](C)O)[C@@H](C)O)C(=O)N[C@@H](CC(=O)O)C(=O)N[C@@H](C)C(=O)N[C@@H](CCCNC(=N)N)C(=O)N[C@@H](CCCNC(=N)N)C(=O)N[C@@H](C)C(=O)N[C@@H](CCCNC(=N)N)C(=O)N[C@@H](CCC(=O)O)C(=O)N[C@@H](Cc1ccccc1)C(=O)N[C@H](C(=O)N[C@@H](CCC(N)=O)C(=O)N[C@@H](Cc1c[nH]c2ccccc12)C(=O)N[C@@H](CC(C)C)C(=O)N[C@@H](CC(C)C)C(=O)N[C@@H](CC(N)=O)C(=O)N[C@@H](CCCCNC(=O)CC[C@H](NC(=O)CC[C@H](NC(=O)COCCOCCNC(=O)CC[C@H](NC(=O)CCCCCCCCCCCCCCCCC(=O)O)C(=O)O)C(=O)O)C(=O)O)C(N)=O)C(C)C` [Example 39, N^ε29-[(4S)-4-carboxy-4-[[(4S)-4-carboxy-4-[[2-[2-[2-[[(4S)-4-carboxy-4-(17-carboxyheptadecanoylamino)butanoyl]amino]ethoxy]ethoxy]acetyl]amino]butanoyl]amino]butanoyl]-[Aib2,Leu10,Ala16,Arg20,Glu21,Leu27,Lys29]-Glucagon amide] (H-H[Aib]QGTFTSDLSKYLDARRAREFVQWLLNK([γGlu-γGlu-AEEA-γGlu-C18 diacid])-NH2; N-terminus assumed), 4 pM. Turning to `CC(C)C[C@H](NC(=O)[C@H](CC(C)C)NC(=O)[C@H](Cc1c[nH]c2ccccc12)NC(=O)[C@H](CCC(N)=O)NC(=O)[C@@H](NC(=O)[C@H](Cc1ccccc1)NC(=O)[C@H](CCC(=O)O)NC(=O)[C@H](CCCNC(=N)N)NC(=O)[C@H](C)NC(=O)[C@H](CCCNC(=N)N)NC(=O)[C@H](CCCNC(=N)N)NC(=O)[C@H](CO)NC(=O)[C@H](CCC(=O)O)NC(=O)[C@H](CC(C)C)NC(=O)[C@H](Cc1ccc(O)cc1)NC(=O)[C@H](CCCCN)NC(=O)[C@H](CO)NC(=O)[C@H](CC(C)C)NC(=O)[C@H](CC(=O)O)NC(=O)[C@H](CO)NC(=O)[C@@H](NC(=O)[C@H](Cc1ccccc1)NC(=O)[C@@H](NC(=O)CNC(=O)[C@H](CCC(N)=O)NC(=O)C(C)(C)NC(=O)[C@@H](N)Cc1c[nH]cn1)[C@@H](C)O)[C@@H](C)O)C(C)C)C(=O)N[C@@H](CC(N)=O)C(=O)N[C@@H](CCCCNC(=O)CC[C@H](NC(=O)CC[C@H](NC(=O)COCCOCCNC(=O)CC[C@H](NC(=O)CCCCCCCCCCCCCCCCC(=O)O)C(=O)O)C(=O)O)C(=O)O)C(N)=O` [Example 40, N^ε29-[(4S)-4-carboxy-4-[[(4S)-4-carboxy-4-[[2-[2-[2-[[(4S)-4-carboxy-4-(17-carboxyheptadecanoylamino)butanoyl]amino]ethoxy]ethoxy]acetyl]amino]butanoyl]amino]butanoyl]-[Aib2,Leu10,Glu15,Arg20,Glu21,Leu27,Lys29]-Glucagon amide] (H-H[Aib]QGTFTSDLSKYLESRRAREFVQWLLNK([γGlu-γGlu-AEEA-γGlu-C18 diacid])-NH2; N-terminus assumed), the half-maximal effective concentration (EC50) was found to be 4 pM. For `CC(C)C[C@H](NC(=O)[C@H](CC(=O)O)NC(=O)[C@H](CC(C)C)NC(=O)[C@H](Cc1ccc(O)cc1)NC(=O)[C@H](CCCCN)NC(=O)[C@H](CO)NC(=O)[C@H](CC(C)C)NC(=O)[C@H](CC(=O)O)NC(=O)[C@H](CO)NC(=O)[C@@H](NC(=O)[C@H](Cc1ccccc1)NC(=O)[C@@H](NC(=O)CNC(=O)[C@H](CCC(N)=O)NC(=O)C1(NC(=O)[C@@H](N)Cc2c[nH]cn2)CCC1)[C@@H](C)O)[C@@H](C)O)C(=O)N[C@@H](CCCCN)C(=O)N[C@@H](CCCNC(=N)N)C(=O)N[C@@H](C)C(=O)N[C@@H](CCCNC(=N)N)C(=O)N[C@@H](CCC(=O)O)C(=O)N[C@@H](Cc1ccccc1)C(=O)N[C@H](C(=O)N[C@@H](CCC(N)=O)C(=O)N[C@@H](Cc1c[nH]c2ccccc12)C(=O)N[C@@H](CC(C)C)C(=O)N[C@@H](CC(C)C)C(=O)N[C@@H](CCCCNC(=O)CNC(=O)[C@H](CO)NC(=O)[C@H](CCC(=O)O)NC(=O)CNC(=O)[C@H](CO)NC(=O)CC[C@H](NC(=O)CC[C@H](NC(=O)CCCCCCCCCCCCCCCCC(=O)O)C(=O)O)C(=O)O)C(=O)N[C@H](C(N)=O)[C@@H](C)O)C(C)C` [Example 48] (I: H-H[Ac4c]QGTFTSDLSKYLDLKRAREFVQWLLKT-NH2 / II: {C18 diacid-γGlu-γGlu}-SGESG; amide I:28-II:C; N-terminus assumed) the value was 44 pM.
